Source: patent publication EP2818472A1, “Imidazo[4,5-c]pyridine and pyrrolo[3,2-c]pyridine compounds as G-protein-coupled receptor kinase 5 (GRK5) modulators” (Max-Planck-Gesellschaft zur Förderung der Wissenschaften …, priority 2013, dated 2014)

The compounds below were run on beta-TC6 cells (assay: Insulin HTRF assay (relative activity Ar) in beta-TC6 cells). Settings: Mus musculus, Beta-TC6, 4 h, insulin HTRF, supernatant of beta-TC6 cells, incubation with test compound at 37°C for 2, 3, 4h; read-out: Ar (relative activity).
Assay type: cell-based, mouse
Method in brief: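 beta-TC6 cells (15k/well, seeded 24 or 48 h) washed, then exposed to compound in induction buffer (0.5% DMSO final) for 2, 3 or 4 h at 37°C.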

Q: `c1ccc(-c2nc3c(N4CCOCC4)nccc3[nH]2)cc1` [Compound 338, 4-(2-phenyl-1H-imidazo[4,5-c]pyridin-4-yl)morpholine] was tested. Which Emax did it give?
A: 30 to 50%

Q: For `c1ccc(-c2nc3c(NCC4CC4)nccc3[nH]2)cc1` [Compound 339, N-(cyclopropylmethyl)-2-phenyl-1H-imidazo[4,5-c]pyridin-4-amine], which Emax is on record?
A: 30 to 50%

Q: Which Emax does the source give for `COCCCNc1nccc2[nH]c(-c3ccccc3)nc12` [Compound 340, N-(3-methoxypropyl)-2-phenyl-1H-imidazo[4,5-c]pyridin-4-amine] here?
A: 30 to 50%

Q: Which Emax does the source give for `COc1cccc(Nc2nccc3[nH]c(-c4ccc(OC)c(OC)c4)nc23)c1` [Compound 341, 2-(3,4-dimethoxyphenyl)-N-(3-methoxyphenyl)-1H-imidazo[4,5-c]pyridin-4-amine] here?
A: 50 to 100%

Q: How did the Emax turn out when `COc1ccc(-c2nc3c(Nc4ccccc4)nccc3[nH]2)cc1OC` [Compound 342, 2-(3,4-dimethoxyphenyl)-N-phenyl-1H-imidazo[4,5-c]pyridin-4-amine] was run?
A: 50 to 100%

Q: For `COc1ccc(-c2nc3c(Nc4cccc(N(C)C)c4)nccc3[nH]2)cc1OC` [Compound 343, N1-[2-(3,4-dimethoxyphenyl)-1H-imidazo[4,5-c]pyridin-4-yl]-N3,N3-dimethyl-benzene-1,3-diamine], which Emax is on record?
A: 50 to 100%

Q: How did the Emax turn out when `COc1ccc(-c2nc3c(NCC(C)C)nccc3[nH]2)cc1OC` [Compound 344, 2-(3,4-dimethoxyphenyl)-N-isobutyl-1H-imidazo[4,5-c]pyridin-4-amine] was run?
A: 30 to 50%

Q: `COc1ccc(Nc2nccc3[nH]c(-c4ccc(OC)c(OC)c4)nc23)cc1` [Compound 345, 2-(3,4-dimethoxyphenyl)-N-(4-methoxyphenyl)-1H-imidazo[4,5-c]pyridin-4-amine] was tested. Which Emax did it give?
A: > 100%

Q: For `COc1ccc(-c2nc3c(N4CCN(C)CC4)nccc3[nH]2)cc1OC` [Compound 346, 2-(3,4-dimethoxyphenyl)-4-(4-methylpiperazin-1-yl)-1H-imidazo[4,5-c]pyridine], which Emax is on record?
A: 50 to 100%

Q: How did the Emax turn out when `COc1ccc(-c2nc3c(NCc4ccccc4)nccc3[nH]2)cc1OC` [Compound 347, N-benzyl-2-(3,4-dimethoxyphenyl)-1H-imidazo[4,5-c]pyridin-4-amine] was run?
A: 50 to 100%

Q: Which Emax does the source give for `COc1ccc(-c2nc3c(NC4CCC(O)CC4)nccc3[nH]2)cc1OC` (stereo not drawn) [Compound 348, 4-[[2-(3,4-dimethoxyphenyl)-1H-imidazo[4,5-c]pyridin-4-yl]amino]cyclohexanol] here?
A: 30 to 50%

Q: With `COc1ccc(-c2nc3c(N(C)c4ccccc4)nccc3[nH]2)cc1OC` [Compound 349, 2-(3,4-dimethoxyphenyl)-N-methyl-N-phenyl-1H-imidazo[4,5-c]pyridin-4-amine] as the compound, how does the Emax read?
A: 30 to 50%

Q: For `COc1ccc(-c2nc3c(NCc4ccc(N(C)C)cc4)nccc3[nH]2)cc1OC` [Compound 350, 2-(3,4-dimethoxyphenyl)-N-[(4-dimethylaminophenyl)methyl]-1H-imidazo[4,5-c]pyridin-4-amine], which Emax is on record?
A: 30 to 50%

Q: Which Emax does the source give for `COc1ccc(-c2nc3c(Nc4cccc(S(C)(=O)=O)c4)nccc3[nH]2)cc1OC` [Compound 351, 2-(3,4-dimethoxyphenyl)-N-(3-methylsulfonylphenyl)-1H-imidazo[4,5-c]pyridin-4-amine] here?
A: 50 to 100%

Q: Which Emax does the source give for `COc1ccc(-c2nc3c(Nc4cccc(O)c4)nccc3[nH]2)cc1OC` [Compound 352, 3-[[2-(3,4-dimethoxyphenyl)-1H-imidazo[4,5-c]pyridin-4-yl]amino]phenol] here?
A: > 100%

Q: Which Emax does the source give for `COc1ccc(-c2nc3c(N4CCOCC4)nccc3[nH]2)cc1OC` [Compound 353, 4-[2-(3,4-dimethoxyphenyl)-1H-imidazo[4,5-c]pyridin-4-yl]morpholine] here?
A: 50 to 100%

Q: For `COc1ccc(-c2nc3c(NCC4CC4)nccc3[nH]2)cc1OC` [Compound 354, N-(cyclopropylmethyl)-2-(3,4-dimethoxyphenyl)-1H-imidazo[4,5-c]pyridin-4-amine], which Emax is on record?
A: 50 to 100%

Q: With `COCCNc1nccc2[nH]c(-c3cccc(C(F)(F)F)c3)nc12` [Compound 355, N-(2-methoxyethyl)-2-[3-(trifluoromethyl)phenyl]-1H-imidazo[4,5-c]pyridin-4-amine] as the compound, how does the Emax read?
A: 30 to 50%

Q: Which Emax does the source give for `COc1ccc(Nc2nccc3[nH]c(-c4cccc(C(F)(F)F)c4)nc23)cc1` [Compound 356, N-(4-methoxyphenyl)-2-[3-(trifluoromethyl)phenyl]-1H-imidazo[4,5-c]pyridin-4-amine] here?
A: > 100%

Q: `FC(F)(F)c1cccc(-c2nc3c(NCCN4CCOCC4)nccc3[nH]2)c1` [Compound 357, N-(2-morpholinoethyl)-2-[3-(trifluoromethyl)phenyl]-1H-imidazo[4,5-c]pyridin-4-amine] was tested. Which Emax did it give?
A: 30 to 50%

Q: Which Emax does the source give for `COc1cccc(Nc2nccc3[nH]c(-c4cccnc4)nc23)c1` [Compound 358, N-(3-methoxyphenyl)-2-(3-pyridyl)-1H-imidazo[4,5-c]pyridin-4-amine] here?
A: 50 to 100%

Q: With `CCN(CC)CCNC(=O)c1ccc(Nc2nccc3[nH]c(-c4cccnc4)nc23)cc1` [Compound 359, N-(2-diethylaminoethyl)-4-[[2-(3-pyridyl)-1H-imidazo[4,5-c]pyridin-4-yl]amino]benzamide] as the compound, how does the Emax read?
A: 30 to 50%

Q: How did the Emax turn out when `c1ccc(CNc2nccc3[nH]c(-c4cccnc4)nc23)cc1` [Compound 360, N-benzyl-2-(3-pyridyl)-1H-imidazo[4,5-c]pyridin-4-amine] was run?
A: 0 to 30%

Q: Which Emax does the source give for `COc1ccc(Nc2nccc3[nH]c(-c4cccc(O)c4)nc23)cc1` [Compound 362, 3-[4-(4-methoxyanilino)-1H-imidazo[4,5-c]pyridin-2-yl]phenol] here?
A: 50 to 100%

Q: With `Oc1cccc(-c2nc3c(N4CCOCC4)nccc3[nH]2)c1` [Compound 363, 3-(4-morpholino-1H-imidazo[4,5-c]pyridin-2-yl)phenol] as the compound, how does the Emax read?
A: 30 to 50%

Q: `COc1cc(Nc2nccc3[nH]c(-c4ccc(O)cc4)nc23)cc(OC)c1OC` [Compound 364, 4-[4-(3,4,5-trimethoxyanilino)-1H-imidazo[4,5-c]pyridin-2-yl]phenol] was tested. Which Emax did it give?
A: 50 to 100%

Q: `Oc1ccc(-c2nc3c(Nc4ccccc4)nccc3[nH]2)cc1` [Compound 365, 4-(4-anilino-1H-imidazo[4,5-c]pyridin-2-yl)phenol] was tested. Which Emax did it give?
A: 30 to 50%

Q: Which Emax does the source give for `CS(=O)(=O)Nc1cccc(Nc2nccc3[nH]c(-c4ccc(O)cc4)nc23)c1` [Compound 366, N-[3-[[2-(4-hydroxyphenyl)-1H-imidazo[4,5-c]pyridin-4-yl]amino]phenyl]methanesulfonamide] here?
A: 30 to 50%

Q: With `COc1cccc(-c2nc3c(Nc4cc(OC)c(OC)c(OC)c4)nccc3[nH]2)c1` [Compound 367, 2-(3-methoxyphenyl)-N-(3,4,5-trimethoxyphenyl)-1H-imidazo[4,5-c]pyridin-4-amine] as the compound, how does the Emax read?
A: 30 to 50%

Q: With `COc1cccc(Nc2nccc3[nH]c(-c4cccc(OC)c4)nc23)c1` [Compound 368, N,2-bis(3-methoxyphenyl)-1H-imidazo[4,5-c]pyridin-4-amine] as the compound, how does the Emax read?
A: 30 to 50%

Q: How did the Emax turn out when `COc1cccc(-c2nc3c(Nc4ccc(OC)c(OC)c4)nccc3[nH]2)c1` [Compound 369, N-(3,4-dimethoxyphenyl)-2-(3-methoxyphenyl)-1H-imidazo[4,5-c]pyridin-4-amine] was run?
A: > 100%

Q: With `COc1cccc(-c2nc3c(Nc4ccccc4)nccc3[nH]2)c1` [Compound 370, 2-(3-methoxyphenyl)-N-phenyl-1H-imidazo[4,5-c]pyridin-4-amine] as the compound, how does the Emax read?
A: 30 to 50%

Q: Which Emax does the source give for `COc1cccc(-c2nc3c(NCCc4ccccn4)nccc3[nH]2)c1` [Compound 371, 2-(3-methoxyphenyl)-N-[2-(2-pyridyl)ethyl]-1H-imidazo[4,5-c]pyridin-4-amine] here?
A: 30 to 50%

Q: `COc1ccc(Nc2nccc3[nH]c(-c4cccc(OC)c4)nc23)cc1` [Compound 372, 2-(3-methoxyphenyl)-N-(4-methoxyphenyl)-1H-imidazo[4,5-c]pyridin-4-amine] was tested. Which Emax did it give?
A: 50 to 100%

Q: Which Emax does the source give for `COc1cccc(-c2nc3c(Nc4cccc(C(F)(F)F)c4)nccc3[nH]2)c1` [Compound 373, 2-(3-methoxyphenyl)-N-[3-(trifluoromethyl)phenyl]-1H-imidazo[4,5-c]pyridin-4-amine] here?
A: 0 to 30%

Q: With `COc1cccc(-c2nc3c(Nc4cccc(O)c4)nccc3[nH]2)c1` [Compound 374, 3-[[2-(3-methoxyphenyl)-1H-imidazo[4,5-c]pyridin-4-yl]amino]phenol] as the compound, how does the Emax read?
A: 50 to 100%

Q: For `COc1cccc(-c2nc3c(N4CCOCC4)nccc3[nH]2)c1` [Compound 375, 4-[2-(3-methoxyphenyl)-1H-imidazo[4,5-c]pyridin-4-yl]morpholine], which Emax is on record?
A: 30 to 50%

Q: Which Emax does the source give for `COc1cccc(-c2nc3c(NCC4CC4)nccc3[nH]2)c1` [Compound 376, N-(cyclopropylmethyl)-2-(3-methoxyphenyl)-1H-imidazo[4,5-c]pyridin-4-amine] here?
A: 30 to 50%

Q: How did the Emax turn out when `COc1cc(Nc2nccc3[nH]c(-c4ccc(C)cc4)nc23)cc(OC)c1OC` [Compound 377, 2-(p-tolyl)-N-(3,4,5-trimethoxyphenyl)-1H-imidazo[4,5-c]pyridin-4-amine] was run?
A: 30 to 50%

Q: Which Emax does the source give for `COc1ccc(Nc2nccc3[nH]c(-c4ccc(C)cc4)nc23)cc1OC` [Compound 378, N-(3,4-dimethoxyphenyl)-2-(p-tolyl)-1H-imidazo[4,5-c]pyridin-4-amine] here?
A: 50 to 100%

Q: Which Emax does the source give for `COc1ccc(Nc2nccc3[nH]c(-c4ccc(C)cc4)nc23)cn1` [Compound 379, N-(6-methoxy-3-pyridyl)-2-(p-tolyl)-1H-imidazo[4,5-c]pyridin-4-amine] here?
A: 50 to 100%

Q: How did the Emax turn out when `Cc1ccc(-c2nc3c(Nc4ccccc4)nccc3[nH]2)cc1` [Compound 380, N-phenyl-2-(p-tolyl)-1H-imidazo[4,5-c]pyridin-4-amine] was run?
A: 30 to 50%

Q: Which Emax does the source give for `CCN(CC)CCNC(=O)c1ccc(Nc2nccc3[nH]c(-c4ccc(C)cc4)nc23)cc1` [Compound 381, N-(2-diethylaminoethyl)-4-[[2-(p-tolyl)-1H-imidazo[4,5-c]pyridin-4-yl]amino]benzamide] here?
A: 50 to 100%

Q: Which Emax does the source give for `COc1ccc(Nc2nccc3[nH]c(-c4ccc(C)cc4)nc23)cc1` [Compound 382, N-(4-methoxyphenyl)-2-(p-tolyl)-1H-imidazo[4,5-c]pyridin-4-amine] here?
A: 30 to 50%

Q: With `Cc1ccc(-c2nc3c(Nc4cccc(O)c4)nccc3[nH]2)cc1` [Compound 383, 3-[[2-(p-tolyl)-1H-imidazo[4,5-c]pyridin-4-yl]amino]phenol] as the compound, how does the Emax read?
A: 50 to 100%
